Assay results published in patent publication US20110206673A1, “POLYPEPTIDES AND POLYNUCLEOTIDES FOR ARTEMIN AND RELATED LIGANDS, AND METHODS OF USE THEREOF” (priority 2007, published 2011).

Key:
MCF-7 cells = test: Soft agar growth assay (96-well, MTT readout); assay type: cell-based, human
Procedure: To perform soft agar colony formation assays, 50 μl of 0.5% agarose in serum containing medium was plated onto each well of 96-well flat-bottom microplates, as a base agar layer. Next, 5×10^3 cells in a 100 μl mixture of 0.35% agarose in serum containing medium were plated onto the base layer. Subsequently, 100 μl of the medium was added to prevent drying of the agarose gels. For antibody treatment, the antibodies at the indicated concentrations were added into the top agar layer and the culture medium to ensure the complete exposure of cells to antibodies. The plates were incubated at 37° C. in a humidified incubator. The top culture medium including the antibodies was changed every 3 days. After 10 days, 20 μl of 5 mg/ml MTT (Sigma Chemical Company, St Louis, Mo., USA) was added into each well and incubated at 37° C. for 4 hours followed by adding 100 μl of acidified lysis buffer (0.01% HCl in 10% SDS). The plate was incubated at 42° C. to ensure a homogenous mixture. The plate was shaken briefly and then read at 595 nm (test wavelength) and 690 nm (reference wavelength) using the Synergy™ 2 Multi-Mode Microplate Reader (BioTek instruments, Inc., Vermont, USA).

[1] = system: MCF7-ARTN and MCF7-Vec cells; test: MTT assay of chemotherapy drug induced death; assay type: cell-based, human; conditions: 10% serum; both MCF7-ARTN and MCF7-Vec cells
Procedure: MTT (3-[4,5-dimethylthiazol-2-yl]-2,5-diphenyl tetrazolium bromide) assays were used measure cell proliferation. Cells were seeded into 96 well flat bottom tissue culture microplates in 100 μl RPMI-1640 culture medium containing 10% FBS at a concentration of 5×10^3 cells/well. On assay day, 10 μl of the MTT labelling reagent was added at a final concentration 0.5 mg/ml to each well and the cells were labelled for 5 h in the incubator. At the end of the incubation period, the media was removed and the converted dye was solubilised with 100 μl solubilising solution (0.01N HCl in 10% SDS in water). The plates were then sealed and placed at 37° C. overnight to completely solubilise the purple formazan crystals. The absorbance of the converted dye was measured using Spectra Max 250 multiplate reader at a wavelength of 570 nm with background subtraction at 650 nm. Each treatment was performed at least in triplicate.

[2] = system: MCF7-ARTN and MCF7-Vec cells; test: Soft agar colony formation in the presence of Tamoxifen (six-well); assay type: cell-based, human; conditions: 1 μM and 5 μM
Procedure: For soft agar colony formation assay, cells were cultured in 6-well plates first covered with a layer of agar (0.5%). Cells were grown in RPMI 1640 media containing 10% FBS. The middle layer included 5×10^3 cells in 0.35% agar in RPMI 1640 media containing 10% FBS. Media was added as the top layer to prevent drying of the agarose gels. The plates were incubated at 37° C. in a humidified incubator for 14 days. After this, cells were stained with 0.5 ml of 0.005% crystal violet in distilled water for 1 h and distained for 2 h in water. Colonies were inspected and photographed.

[3] = system: MCF-7 breast cancer cells; conditions: cited from earlier work

SMILES | soft agar growth compared with controls (MCF-7 cells; Faslodex (ICI 182,780) 100 nM alone) | soft agar growth compared with controls (MCF-7 cells; Tamoxifen 1 μM alone) | cell death (MTT viability) [1] | number of colonies formed in soft agar [2] | effect at lower concentrations ([3]; 0.1-1 μM) | effect at pharmacological concentrations ([3]; above 5 μM)
C[C@]12CC[C@@H]3c4ccc(O)cc4C[C@@H](CCCCCCCCC[S+]([O-])CCCC(F)(F)C(F)(F)F)[C@H]3[C@@H]1CC[C@@H]2O (stereo partly drawn) [Faslodex, Faslodex (ICI 182,780)] | 55.8% | – | – | – | – | –
CC/C(=C(\c1ccccc1)c1ccc(OCCN(C)C)cc1)c1ccccc1 [Tamoxifen] | – | 40.4% | caused cell death in a dose dependent manner | reduced the number of colonies | induce a cell-cycle arrest | induce apoptosis
